Source: patent US4275065A, “Modulating the immune response with 2-substituted-3-hydroxythiazolo[2,3-b]b e” (American Home Products Corporation, priority 1980, dated 1981)

Legend:
thymus gland = assay: effect on the thymus gland (thymus weight); type: in vivo, BDF1 mice; conditions: Table 4; 200 mg/kg
Method: The effect of the compounds of the invention on the thymus gland is measured. BDF1 mice of 18-20 gms. weight are dosed at 150 mg/kg. with 6-chloro-2-phenylthiazolo[2,3-b]benzothiazolo-3(2H)-one mesoionic didehydro derivative for eight consecutive days. The mice are sacrificed on the ninth day, the thymus glands excised and weighed. The excised thymus glands averaged […]. as compared to […]. for the control group. […] The weight loss is also correlated to dose, and the results are as follows:
Using the same technique, the following compounds of the invention were tested: 6-chloro-2-(p-chlorophenyl)thiazolo[2,3-b]benzothiazol-3(2H)-one mesoionic didehydro derivative (A), 2-phenyl-5,6,7,8-tetrahydrothiazolo[2,3-b]benzothiazol-3(2H)-one mesoionic didehydro derivative (B), 2-phenylthiazolo[2,3-b]-benzothiazol-3(2H)-one mesoionic didehydro derivative (C),6-chloro-2-trifluoroacetylthiazolo[2,3-b]benzothiazol-3(2H)-one mesoionic didehydro derivative (D), 6-chloro-3-hydroxy-2-phenylthiazolo[2,3-b]benzothiazolium bromide (E), 7-ethoxy-3-hydroxy-2-phenylthiazolo[2,3-b]benzothiazolium bromide (F), 3-hydroxy-2-phenylthiazolo[2,3-b]benzothiazolium bromide (G), and 3-hydroxy-2-phenyl-5,6,7,8-tetrahydrothiazolo[2,3-b]benzothiazolium bromide (H).

[1] = system: antibody-secreting plaque-forming splenocytes (IgG and IgM); assay: Cunningham modification of the Jerne assay (hemolytic plaque technique), IgM and IgG plaques per spleen; type: in vivo, CDF1 (Balb/c × DBA/2) mice; conditions: Table 2, 200 mg/kg
Method: In this example, the compounds of the invention are tested for their effect on antibody-secreting plaque-forming splenocytes (IgG and IgM) in the Cunningham modification of the Jerne assay. This technique is able to detect, in a quantitative manner, antibody producing cells in response to antigen stimulus in the host mouse. For study of […] immune response, sheep erythrocytes (SRBC) are used (as in the present Example), while for humoral immune response, SRBC coupled with pneumococcal polysaccharide is used.
CDF1 (Balb/c × DBA/2) mice are immunized with 0.1 ml. of 10^8 sheep erythrocytes (SRBC) intraperitonially 4-5 days before the assay. The mice are separated into groups, with one group serving as a control and all other groups receiving compounds of the invention. The treated mice are dosed with drug on day one. […] The spleens of the sacrificed mice are excised and washed several times in RPMI 1640 with 10% fetal bovine serum. 100 λ of spleen cells are mixed with a drop of guinea pig complement, four drops of RPMI 1640 and a drop of 25% SRBC in a microtiter plate well and then pipetted into a Cunningham chamber. On day four, for IgM determinations, the chambers are incubated for 30 minutes at 37° C. Antibody, released by the small proportion of active cells, attaches to the surrounding erythrocytes which are lysed by complement leaving a small plaque up to 0.5 mm. in diameter. Since only cells releasing IgM antibody form plaques directly, a "developing" serum must be added to be able to form and view IgG plaques. Thus fifth or sixth day cultured spleen cells are further treated with rabbit antimouse IgG and then incubated for 45 minutes. Both IgM and IgG plaques are counted under a stereomicroscope.
In Table 1 are given the IgM and IgG plaque counts per spleen for mice treated with 6-chloro-2-phenylthiazolo[2,3-b]benzothiazol-3(2H)-one mesoionic didehydro derivative and for the controls:
The assay is repeated using the following compounds of the invention: 2-phenylthiazolo[2,3-b]benzothiazol-3(2H)-one mesoionic didehydro derivative (A), 6-chloro-2-(p-chlorophenyl)-thiazolo[2,3-b]benzothiazol-3(2H)-one mesoionic didehydro derivative (B) and 6-chloro-2-phenylthiazolo[2,3-b]benzothiazol-3(2H)-one mesoionic didehydro derivative (C).

hemolytic anemia = assay: autoimmune hemolytic anemia model, serum immunoglobulins; type: in vivo, NZB mice; set-up: IgM, Baseline: unit not given beside the values; conditions: for ANA (antinuclear antibody), 1st Reading / IgG, 1st Reading / IgM, 1st Reading: 1st Reading (156 Days); for ANA (antinuclear antibody), 1st Reading / IgG, 1st Reading / IgM, 1st Reading / IgG, % Change / IgM, % Change: 200 mg/kg, four doses over two weeks; for IgG, % Change / IgM, % Change: 142 to 156 Days
Text: NZB/W F1 mice are divided into two groups according to sex. At the initiation of drug treatment, female mice are 78.2 days old with an average weight of 30 g., while male mice are 69.5 days old with an average weight of 40 g. IgG, IgM and antinuclear antibody determinations are made on pooled samples of serum obtained by capillary bleedings of the suborbital sinus at approximately monthly intervals. The compounds of the invention are suspended in a solution of physiological saline with 0.16% CMC. All dosing is twice weekly intraperitonially.
Another autoimmune disease model, hemolytic anemia, is used to further evaluate the compounds of the invention. Thus, NZB mice, having an average age of 142 days and with well advanced hemolytic anemia, are divided into treatment groups and are dosed biweekly over a period of two weeks (four doses total) with the following compounds in the same manner as previously described: 6-chloro-2-(p-chlorophenyl)thiazolo[2,3-b]benzothiazol-3(2H)-one mesoionic didehydro derivative (A), 2-phenyl-5,6,7,8-tetrahydrothiazolo[2,3-b]benzothiazol-3(2H)-one mesoionic didehydro derivative (B), 2-phenylthiazolo[2,3-b]benzothiazol-3(2H)-one mesoionic didehydro derivative (C) and 6-chloro-2-trifluoroacetylthiazolo[2,3-b]benzothiazol-3(2H)-one mesoionic didehydro derivative (D). The immunoglobulin values from serum samples are compared with the baseline (pretreatment) for each group and the results are summarized in Table 10: […]

[2] = system: delayed hypersensitivity reaction; assay: guinea pig delayed hypersensitivity assay (PPD); type: in vivo, Male Hartley strain guinea pigs; conditions: 50 mg/kg orally, read 24 hours after challenge, * = p < 0.05
[3] = Baseline (142 Days), 200 mg/kg group

SMILES: [O-]c1c(-c2ccccc2)sc2sc3ccccc3[n+]12 [A]
- toxicity (printed in the thymus weight column) (thymus gland): toxic
- IgG, mean (total number of plaques per spleen) ([1]; Day 4): 107,100 plaques per spleen
- IgM, mean (total number of plaques per spleen) ([1]; Day 4): 163,800 plaques per spleen
- IgG, mean (total number of plaques per spleen) ([1]; Day 5): 184,590 plaques per spleen
- IgM, mean (total number of plaques per spleen) ([1]; Day 5): 97,020 plaques per spleen
- ANA (antinuclear antibody), 1st Reading (hemolytic anemia): neg.
- IgG, 1st Reading (hemolytic anemia): 570
- IgM, 1st Reading (hemolytic anemia): 176
- IgG, % Change (hemolytic anemia): -15%
- IgM, % Change (hemolytic anemia): +21%
- ANA (antinuclear antibody), Baseline (hemolytic anemia; [3]): neg.
- IgG, Baseline (hemolytic anemia; [3]): 674
- IgM, Baseline (hemolytic anemia; [3]): 146

SMILES: [O-]c1c(-c2ccc(Cl)cc2)sc2sc3ccc(Cl)cc3[n+]12 [B]
- % Change in weight (thymus gland) (thymus gland): -53%
- Avg. weight of thymus gland (thymus gland): 18.6 mg
- IgG, mean (total number of plaques per spleen) ([1]; Day 4): 9,656 plaques per spleen
- IgM, mean (total number of plaques per spleen) ([1]; Day 4): 74,025 plaques per spleen
- IgG, mean (total number of plaques per spleen) ([1]; Day 5): 49,218 plaques per spleen
- IgM, mean (total number of plaques per spleen) ([1]; Day 5): 50,250 plaques per spleen
- ANA (antinuclear antibody), 1st Reading (hemolytic anemia): neg.
- IgG, 1st Reading (hemolytic anemia): 304
- IgM, 1st Reading (hemolytic anemia): 120
- IgG, % Change (hemolytic anemia): -60%
- IgM, % Change (hemolytic anemia): -32%
- IgG, Baseline (hemolytic anemia; [3]): 760
- IgM, Baseline (hemolytic anemia; [3]): 176

SMILES: [O-]c1c(-c2ccccc2)sc2sc3ccc(Cl)cc3[n+]12 [C]
- IgG, mean (total number of plaques per spleen) ([1]; Day 4): 22,875 plaques per spleen
- IgM, mean (total number of plaques per spleen) ([1]; Day 4): 110,643 plaques per spleen
- IgG, mean (total number of plaques per spleen) ([1]; Day 5): 117,337 plaques per spleen
- IgM, mean (total number of plaques per spleen) ([1]; Day 5): 55,518 plaques per spleen

SMILES: O=P1(N(CCCl)CCCl)NCCCO1 (centres unmarked) [Cyclophosphamide, cyclophosphamide, reference compound]
- Mean % Inhibition of Paw Edema ([2]; 6 hours after challenge): 58%
- Mean % Inhibition of Paw Edema ([2]; 24 hours before challenge): 56%
